Assay results as given in patent US9926293B2, “Multivalent RAS binding compounds” (THE TRUSTEES OF COLUMBIA UNIVERSITY IN THE CITY OF NEW YORK, priority 2014, dated 2018).

Key:
[1] = target: T1, GppNHp-loaded KRASG12D (Homo sapiens, UniProt P01116, G12D); assay: Isothermal titration calorimetry; type: binding; conditions: ITC, 25° C.; read-out: dissociation constant
T1 construct: made in house; host or cells: Escherichia coli BL21-Gold (DE3)
Experimental: Isothermal Titration Calorimetry (ITC)
All ITC experiments were carried out at 25° C. on a MicoCal Auto-ITC200 system (GE Healthcare).
450 μL of the compound solution was loaded into the cell at 250 μM in ITC buffer (25 mM Tris pH 7.4, 1 mM TCEP, 100 mM NaCl, 5 mM MgCl2, 0.05% Tween-20) with a final DMSO concentration at 1.25% (v/v). KRAS^G12D⋅GppNHp was buffer exchanged into same ITC buffer using Amicon Ultra 10 kDa size exclusion filter spin columns (buffer replaced with ITC buffer four times). Prior to loading 130 μL of KRAS^G12D⋅GppNHp into the syringe at 2.5 mM, DMSO was added to match the amount DMSO present in the cell. ITC titration experiments were carried out at 25° C. with 19 injections, 2 μl per injection, and 180 seconds between each injection. Reference cell power was set to 5 μcal/sec. A control experiment was performed where ITC buffer was titrated into compound 31MEW44 alone to account for heat released due to dilution. This background was subtracted from test data before the final dissociation constant was obtained. Data were analyzed using the one-site binding model in Origin 7.1 software. The dissociation constant, Kd, was calculated according to equation Kd=1/Ka. Gibbs free energy, ΔG, was calculated from the equation ΔG=−RTInKa. −TΔS was calculated from the equation ΔG=ΔH−TΔS. All other parameters, Ka, n, ΔH, were determined directly from the titration data.

[2] = target: T2, GppNHp-loaded RALA (Homo sapiens, UniProt P11233); assay: Microscale thermophoresis on GppNHp-loaded RALA; type: binding; conditions: MST, up to 190 μM
T2 construct: purchased Abcam ab102555
Experimental: KRAS^G12D (250 μM) in 25 mM HEPES, 100 mM sodium chloride, 2 mM TCEP with 20 mM EDTA and 1 mM GppNHp was shaken at 220 rpm at 30° C. to remove the endogenous nucleotide, The solution was placed on ice for 2 minutes prior to the addition of 65 mM MgCl2. After an additional 10 minutes incubation on ice, 200 uL of a 10 uM solution of KRAS^G12D was combined with 200 uL of a 20 uM solution of NT-647-NHS-ester dye (from a 652.4 μM stock). The protein/dye mixture was rotated at 4° C. for 30 minutes, before being separated from the excess dye and buffer exchanged into 25 mM Tris, 100 mM sodium chloride, 2 mM TCEP, and 5 mM MgCl2 via a nap-5 column. The test compounds were arrayed across a 16-point dilution series consisting of 1.5% DMSO with 25 mM Tris, 100 mM NaCl, 2 mM TCEP, 5 mM MgCl2 and 0.05% tween-20. Thermophoretic movement of the fluorescently labeled protein with the inhibitors was performed using a Monolith NT.115 (Nanotemper Technologies). RALA and RHOA were purchased commercially from Abcam (RALA CN:ab102555, RHOA CN:ab101594).
To provide evidence that the compound indeed was selective for RAS GTPases, MST binding measurements were performed on GppNHp-loaded RHEB, RHOA and RALA (FIG. 14J).

[3] = system: BJeLR (HRAS^G12V) cells; assay: Gene expression analysis by RT-qPCR; type: cell-based
Experimental: FIG. 22A-FIG. 22D show BJeLR cells were treated with DMSO, 31 MEW44 at 5 μM and/or 25 μM alongside BJHLT treated with DMSO for one hour. Cells were lysed and the RNA was extracted, converted to cDNA and quantified by qPCR.
Gene Expression Analysis by RT-qPCR
Cells from six-well plates were trypsinized and centrifuged at 3,000 rpm for 3 minutes. The cell pellet was then lysed and the RNA was extracted using QIAshreader and RNAeasy extraction kits (QIAGEN) according to the manufacturer's protocol. 2 micrograms of RNA from each sample was then converted to cDNA using the TaqMan RT Kit (Applied Biosystems). Primers for Quantitative PCR (qPCR) were designed with Primer Express. qPCR was performed using Power SYBR Green Master Mix (Applied Biosystems) in a 96-well format, in triplicate, using an Applied Biosystems 7300 Cycler set to absolute quantification. Expression changes were computed using the ΔΔCt method with GAPDH as an internal reference gene. The primers used were as follows: urokinase-type plasminogen activator (uPA) Forward 5′ […] 3′ (SEQ ID NO: 54), reverse 5′ […] 3′ (SEQ ID NO: 55); matrix metalloprotease 9 (MMP9) forward 5′ […] 3′ (SEQ ID NO: 56), reverse 5′ […] 3′ (SEQ ID NO: 57); lactate dehydrogenase (LDH) forward 5′ […] 3′ (SEQ ID NO: 58), reverse 5′ […] 3′ (SEQ ID NO: 59); CMYC forward 5′ […] 3′ (SEQ ID NO: 60), reverse 5′ […] 3′ (SEQ ID NO: 61).

[4] = system: KRAS^LSLG12D; p53^fl/fl; Pdx1-Cre pancreatic tumors; assay: KP^f/fC mouse study; type: in vivo; conditions: for toxicity: 30 mg/kg once daily i.p.
Experimental: KRAS^LSLG12D; p53^fl/fl; Pdx1-Cre (KP^F/FC) mice have been previously described (Bardeesy et al., 2006). Animals were housed in a barrier facility and monitored daily prior to enrollment on studies. All experiments were carried out in compliance with established IACUC guidelines of Columbia University.
Paraffin embedded samples were sectioned at […] and mounted on positively charged sample slides. These slides were heated at 60° C. for 15-30 minutes and subsequently rehydrated by standard protocols. Unmasking was performed in 10 mM citrate buffer, pH 6 for 5 minutes in a pressure cooker at high temperature, followed by a peroxidase quench in 3% hydrogen peroxide for 20 minutes. Blocking was carried out using 1.5% horse serum and 2% animal free blocker (Vector Labs) in TBS-T for 1 hour at room temperature. Slides were incubated with primary antibody (cleaved caspase-3, catalog no. 9664; ERK, catalog no. 4695; pERK, catalog no. 4376. All antibodies from Cell Signaling) overnight at 4° C. Slides were then allowed to equilibrate to room temperature prior to washing with TBS-T and incubation with secondary antibody (ImmPress polymer reagent, Vector Labs). Signal was developed with ImmPACT DAB Peroxidase Substrate (Vector Labs). Slides were counterstained with hematoxylin for 30 seconds. For quantification of cleaved-caspase 3 staining, all available 40× fields on three separate sections of biopsy samples and twenty total 40× fields from two separate sections of necropsy samples were analyzed for each study mouse.
Mice were monitored closely for changes in health status and were sacrificed after 5 days on study or once they met endpoint criteria in keeping with IACUC standards.

[5] = pre- vs post-treatment tumor samples, 30 mg/kg i.p.

T2 sequence (P11233 whole entry): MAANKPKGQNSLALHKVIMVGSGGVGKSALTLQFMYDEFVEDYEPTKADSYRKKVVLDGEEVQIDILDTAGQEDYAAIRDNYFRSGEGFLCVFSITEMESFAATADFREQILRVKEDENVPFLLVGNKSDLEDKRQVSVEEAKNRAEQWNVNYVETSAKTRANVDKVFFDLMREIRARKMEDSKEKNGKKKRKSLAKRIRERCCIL
T1 sequence (P01116 1-169 isoform P01116-2 G12D): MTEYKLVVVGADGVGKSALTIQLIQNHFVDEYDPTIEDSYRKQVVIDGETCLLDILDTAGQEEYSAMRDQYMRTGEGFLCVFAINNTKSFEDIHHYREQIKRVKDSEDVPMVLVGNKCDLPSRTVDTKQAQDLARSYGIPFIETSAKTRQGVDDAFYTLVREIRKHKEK

In the case of `NC1(C(=O)NCCCn2cc(-c3ccc(OC(F)(F)F)cc3)c3cc(CN4CCN(Cc5c(Cl)cccc5Cl)CC4)ccc32)CCNCC1` [Compound 31MEW44, 4-amino-N-(3-(5-((4-(2,6-dichlorobenzyl)piperazin-1-yl)methyl)-3-(4-(trifluoromethoxy)phenyl)-1H-indol-1-yl)propyl)piperidine-4-carboxamide], the Kd [1] is reported as 34 µM, the binding [2] is reported as “no binding was observed” and the “CMYC mRNA” value [3] is reported as “dose-dependent reduction in CMYC mRNA”. The LDH expression [3] was “decreased these elevated levels of LDH, dose-dependently”, the MMP9 expression [3] was “Downregulation of MMP9 expression” and the “DUSP6 and IDH2 expression profile” value ([3]; 5 μM and 25 μM) was “profile characteristic of decreased activation of RAS signaling”. For the same molecule, the uPA expression ([3]; 5 μM and 25 μM) was “dose-dependent decrease in uPA expression”, the toxicity ([4]; KP^f/fC mice) was “toxicity was observed” and the “cleaved caspase-3 in tumor” value ([4]; immunohistochemistry, 30 mg/kg i.p.) was “modest increase in cleaved caspase-3”. For the same molecule, the “phosphorylated AKT (S473) in tumor” value [4, 5] was “substantial decrease”, the “phosphorylated ERK1/2 in tumor” value [4, 5] was “substantial decrease” and the toxicity ([4]; wild-type mice) was “not in wild-type mice”.
